From ChEMBL document CHEMBL1130747, “Synthesis of novel cyclic protease inhibitors using Grubbs olefin metathesis” (Bioorg Med Chem Lett, 1998)

Target: T1, Rhizopuspepsin (Rhizopus microsporus var. chinensis, UniProt P06026)
T1 sequence (P06026 whole entry): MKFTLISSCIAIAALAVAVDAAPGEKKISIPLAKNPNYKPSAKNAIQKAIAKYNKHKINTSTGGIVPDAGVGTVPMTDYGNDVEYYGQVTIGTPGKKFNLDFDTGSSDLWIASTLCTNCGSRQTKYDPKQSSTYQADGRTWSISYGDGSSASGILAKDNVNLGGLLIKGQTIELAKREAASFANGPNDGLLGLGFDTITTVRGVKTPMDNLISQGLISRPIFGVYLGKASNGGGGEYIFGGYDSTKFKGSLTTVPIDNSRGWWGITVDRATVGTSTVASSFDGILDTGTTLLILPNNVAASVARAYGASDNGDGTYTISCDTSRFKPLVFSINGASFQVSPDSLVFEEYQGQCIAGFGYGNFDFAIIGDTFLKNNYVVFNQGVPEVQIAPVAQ
Assay: Inhibition of Rhizopus chinensis pepsin using fluorescence assay

| Ki [nM] | SMILES |
| --- | --- |
| 1.31 | CC(C)[C@H]1NC(=O)[C@H](NC(=O)OC(C)(C)C)CCCCCCCC[C@H](CO)NC1=O |
| 336 | CC(C)[C@H]1NC(=O)[C@H](NC(=O)OC(C)(C)C)CCC/C=C\CCC[C@H](CO)NC1=O |
